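Interpolation was linear, between the two tested concentrations surrounding the appropriate level; five concentrations were tested over 48 hours in 96-well plates. GI50: concentration for 50% inhibition of growth.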 Calls of active or inactive are those of the source. No stated cut-off is given here; in the data, active = GI50 up to about 1.1 µM and inactive = higher.
Key:
Test in all cases: NCI anticancer screen, dose series, 48 h
786-0 = test system: 786-0
A498 = test system: A498
A549 = test system: A549
ACHN = test system: ACHN
CAKI-1 = test system: CAKI-1
CCRF-CEM = test system: CCRF-CEM
COLO 205 = test system: COLO 205
DLD-1 = test system: DLD-1
DMS-114 = test system: DMS-114
DMS-273 = test system: DMS-273
EKVX = test system: EKVX
HCT-116 = test system: HCT-116
HCT-15 = test system: HCT-15
HL-60 = test system: HL-60
HOP-18 = test system: HOP-18
HOP-62 = test system: HOP-62
HOP-92 = test system: HOP-92
HT-29 = test system: HT-29
IGROV-1 = test system: IGROV-1
K562 = test system: K562
KM-20L2 = test system: KM-20L2
KM12 = test system: KM12
LOX IMVI = test system: LOX IMVI
LXFL 529 = test system: LXFL 529
M14 = test system: M14
M19-MEL = test system: M19-MEL
MOLT-4 = test system: MOLT-4
Malme-3M = test system: Malme-3M
NCI-H226 = test system: NCI-H226
NCI-H23 = test system: NCI-H23
NCI-H460 = test system: NCI-H460
NCI-H522 = test system: NCI-H522
OVCAR-3 = test system: OVCAR-3
OVCAR-4 = test system: OVCAR-4
OVCAR-5 = test system: OVCAR-5
OVCAR-8 = test system: OVCAR-8
RPMI-8226 = test system: RPMI-8226
RXF 393 = test system: RXF 393
RXF 631 = test system: RXF 631
SF-268 = test system: SF-268
SF-295 = test system: SF-295
SF-539 = test system: SF-539
SK-MEL-28 = test system: SK-MEL-28
SK-MEL-2 = test system: SK-MEL-2
SK-MEL-5 = test system: SK-MEL-5
SK-OV-3 = test system: SK-OV-3
SN12C = test system: SN12C
SNB-19 = test system: SNB-19
SNB-75 = test system: SNB-75
SNB-78 = test system: SNB-78
SW-620 = test system: SW-620
TK-10 = test system: TK-10
U-251 = test system: U-251
UACC-257 = test system: UACC-257
UACC-62 = test system: UACC-62
UO-31 = test system: UO-31

Measured: GI50

COc1cccc2c1C1=CC(=O)CCC1C(C)(C)O2 (stereo unspecified)
inactive: 786-0 > 100 µM | A498 > 100 µM | A549 > 100 µM | ACHN > 100 µM | CAKI-1 > 100 µM | CCRF-CEM 56.4 µM | COLO 205 67.6 µM | DLD-1 57.5 µM | DMS-114 27.8 µM | DMS-273 > 100 µM | EKVX > 100 µM | HCT-116 47.6 µM | HL-60 60 µM | HOP-18 > 100 µM | HOP-62 > 100 µM | HOP-92 > 100 µM | HT-29 > 100 µM | IGROV-1 > 100 µM | K562 > 100 µM | KM-20L2 > 100 µM | KM12 45.6 µM | LOX IMVI 35.7 µM | LXFL 529 > 100 µM | M14 > 100 µM | M19-MEL > 100 µM | MOLT-4 > 100 µM | Malme-3M > 100 µM | NCI-H226 > 100 µM | NCI-H23 > 100 µM | NCI-H460 35.9 µM | NCI-H522 > 100 µM | OVCAR-3 > 100 µM | OVCAR-4 > 100 µM | OVCAR-5 > 100 µM | OVCAR-8 > 100 µM | RPMI-8226 20.6 µM | RXF 393 6.03 µM | RXF 631 > 100 µM | SF-268 44.1 µM | SF-295 > 100 µM | SF-539 > 100 µM | SK-MEL-28 > 100 µM | SK-MEL-2 > 100 µM | SK-MEL-5 > 100 µM | SK-OV-3 > 100 µM | SN12C > 100 µM | SNB-19 > 100 µM | SNB-75 > 100 µM | SNB-78 > 100 µM | SW-620 13.4 µM | TK-10 > 100 µM | U-251 45.3 µM | UACC-257 > 100 µM | UACC-62 > 100 µM | UO-31 > 100 µM
> 100 µM: HCT-15
